Results on 12 molecules are retold here after patent publication US20220151890A1, “EFFICIENT SUNSCREEN COMPOSITIONS WITH DIETHYLAMINO HYDROXYBENZOYL HEXYL BENZOATE AND BUTYL METHOXYDIBENZOYLMETHANE” (BASF SE, priority 2019, published 2022).

Counter-ions that a name gives are not always drawn.

Series [1] is described as follows: UV filter performance: wavelength of maximum absorbance of DHHB in emollient. Particulars: DHHB dissolved in the listed emollient; UV/Vis 290 to 400nm, 1 cm cuvette. It counts as physicochemical. As for the experimental part:
(§1) The wavelength of maximum absorbance (,max) is an indicator to describe the performance of a UV filter molecule. It gives the wavelength at which the absorbance is at maximum. […] The UV transmission spectrum of each UV filter - emollient mixture was measured from 290 to 400nm using a UV/Vis spectrophotometer Perkin Elmer Lambda 25. Three stock solutions with a concentration of 1mM of UV filter were prepared for each mixture. Further, three dilutions of each stock solution were prepared resulting in nine measurements in total per UV filter-emollient solution. Then, all solutions were filled in UV transparent quartz cuvette of 1 cm optical path-length for UV Transmission measurements.

Series [2] can be described thus: UV filter performance: wavelength of maximum absorbance of BMDBM in emollient. Type of series: physicochemical. Particulars: BMDBM dissolved in the listed emollient; UV/Vis 290 to 400nm, 1 cm cuvette. The method, then: as §1
Series [3] can be described thus: Measurement of interfacial tension (polarity index) of emollients. It counts as physicochemical. The conditions noted are these: interfacial tension between emollient and water, Tensimat Densimat TD2000. An excerpt: The term “polarity index” refers to non-polar or polar oils. Non-polar oils are mainly based on hydrocarbons and lack an electronegative element, such as oxygen. In contrast, polar oils contain heteroatoms that differ in electronegativity, which results in a dipole moment. However, such oils are still insoluble in water, i.e. hydrophob. The polarity index can be determined by measuring the interfacial tension between the respective oil and water.
Measurement of interfacial tension (polarity index)
Interfacial tension of the respective emollients as listed below was measured using a Tensimat Densimat TD2000.

For series [4] the following is noted: description of the commercial UV filter; cited from earlier work.
A short description of series [5]: Recovery measurements on photo stability of BMDBM (irradiated film on quartz plates, HPLC). It counts as physicochemical. The conditions noted are these: octocrylene free sunscreen composition. The method, then:
Recovery measurements on photo stability of BMDBM
The sunscreen and UV filter compositions as defined above are applied on roughened quartz plates (2 μl/cm^2). Plates are irradiated using Atlas CPS device at different duration times (MED=Minimal Erythema Dose):
(§2) 0h (0 MED, no irradiation)
4h (20 MED). In total, four plates are prepared for each irradiation condition. After irradiation, each plate is rinsed off with tetrahydrofuran. The rinsing solution is further analyzed via HPLC to determine the recovery of BMDBM.

A short description of series [6]: Recovery measurements on photo stability of BEMT (irradiated film on quartz plates, HPLC). Type of series: physicochemical. The conditions noted are these: presence of BMDBM in the composition. The method, then:
Recovery measurements on photo stability of BEMT
The sunscreen and UV filter compositions as defined above are applied on roughened quartz plates (2 μl/cm^2). Plates are irradiated using Atlas CPS device at different duration times:
as §2
4h (20 MED). In total, four plates are prepared for each irradiation condition. After irradiation, each plate is rinsed off with tetrahydrofuran. The rinsing solution is further analyzed via HPLC to determine the recovery of BEMT.

On to `CCCCOC(=O)CC(O)(CC(=O)OCCCC)C(=O)OCCCC` [tributyl citrate], for which the “λmax values (DHHB)” value in series [1] stood at 352 nm. The “λmax values (BMDBM)” value in series [2] amounted to 359 nm. For the same molecule, in series [3], the polarity index amounted to 10 mN/m.
Consider `CCCCCCOC(=O)c1ccccc1C(=O)c1ccc(N(CC)CC)cc1O` [DHHB, hexyl 2-[4-(diethylamino)-2-hydroxybenzoyl]benzoate], for which, in series [4], the absorption maximum was 354 nm. Further, the “effect on photo stability of BMDBM and BEMT, in words” value in series [5] is “stabilizes the UV filter BMDBM and BEMT”.
With `O=C(OCCc1ccccc1)c1ccccc1` [phenethyl benzoate], the “λmax values (DHHB)” value in series [1] came out at 355 nm. Also, the “λmax values (BMDBM)” value in series [2] is recorded as 362 nm. The same molecule displayed a polarity index in series [3] of 19 mN/m.
Regarding `CC(C)OC(=O)CCCCCCCCC(=O)OC(C)C` [diisopropyl sebacate], the “λmax values (DHHB)” value in series [1] turned out to be 350 nm. Moreover, the “λmax values (BMDBM)” value in series [2] is given as 357 nm.
For the molecule `CCCCCCCCCCCCCC(=O)OC(C)C` [isopropyl myristate], the “λmax values (BMDBM)” value in series [2] was determined as 357 nm.
`CCOC(=O)CC(O)(CC(=O)OCC)C(=O)OCC` [triethyl citrate]: the “λmax values (DHHB)” value in series [1] turned out to be 353 nm. The “λmax values (BMDBM)” value in series [2] was found to be 359 nm.
On to `CC(C)OC(=O)CCCCC(=O)OC(C)C` [diisopropyl adipate], for which the “λmax values (DHHB)” value in series [1] is recorded as 351 nm. The “λmax values (BMDBM)” value in series [2] stood at 357 nm. For the same molecule, the polarity index in series [3] came to 12 mN/m.
With `COc1ccc(C(=O)CC(=O)c2ccc(C(C)(C)C)cc2)cc1` [BMDBM, 1-(4-(1,1-dimethylethyl)phenyl)-3-(4-methoxyphenyl)propane-1,3-dione], the absorption maximum in series [4] was 357 nm. The “effect on stability of BEMT, in words” value in series [6] is recorded as “destabilizes the UV filter BEMT”.
Take `CCCCC(CC)COC(=O)c1ccc(Nc2nc(Nc3ccc(C(=O)NC(C)(C)C)cc3)nc(Nc3ccc(C(=O)OCC(CC)CCCC)cc3)n2)cc1` (stereo not drawn) [diethylhexyl-butamidotriazone, 4,4′-[[6-[[4-[[(1,1-dimethylethyl)amino]carbonyl]phenyl]amino]-1,3,5-triazin-2,4-diyl]diimino]bis-benzoic acid-bis(2-ethylhexyl)ester]: the absorption maximum in series [4] is listed as 310 nm.
On to `CCCCCCCCCCC(CO)CCCCCCCC` (stereo not drawn) [octyldodecanol], for which the “λmax values (DHHB)” value in series [1] is recorded as 349 nm. In addition, the “λmax values (BMDBM)” value in series [2] is on record as 357 nm. The molecule also gave a polarity index in series [3] of 25 mN/m.
With `CCCCOC(=O)CCCCC(=O)OCCCC` [dibutyl adipate], in series [1], the “λmax values (DHHB)” value was 351 nm.
Turning to `c1ccc(-c2ccc(-c3nc(-c4ccc(-c5ccccc5)cc4)nc(-c4ccc(-c5ccccc5)cc4)n3)cc2)cc1` [tris-biphenyl triazine, 2,4,6-Tris(biphenyl-4-yl)-1,3,5-triazine], the absorption maximum in series [4] is 310 nm.
